Legend:
[1] = tested on: 3D mini-forebrain organoid; experiment: Toxicity to 3D mini-forebrain organoid; assay type: cell-based, human; conditions: Fig. S2; organoids fell apart and lost clear boundary
[2] = cited from earlier work
[3] = molecular target: NS2B−NS3 interactions (NLuc-NS2B49−66 / GST-CLuc-NS3) (Dengue virus type 2, UniProt P29990); experiment: Split luciferase complementation; assay type: binding
[4] = molecular target: T1, NS2B−NS3 protease (His-tagged NS2B / DENV2 NS3-MBP fusion protein) (Dengue virus type 2, UniProt P29990); experiment: NS2B−NS3 protease inhibition assay with FRET substrate; assay type: biochemical
T1 sequence (P29990 1476-1653 limits assumed): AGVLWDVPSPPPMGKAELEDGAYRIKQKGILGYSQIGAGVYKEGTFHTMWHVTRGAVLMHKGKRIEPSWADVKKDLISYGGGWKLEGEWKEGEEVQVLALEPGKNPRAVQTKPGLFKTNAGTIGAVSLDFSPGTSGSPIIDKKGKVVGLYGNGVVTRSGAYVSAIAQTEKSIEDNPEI

[5] = tested on: ZIKV PRVABC59; experiment: PFU viral plaque reduction assay in A549 cells; assay type: cell-based; conditions: Zika virus, A549, read-out: EC50 (anti-ZIKV)
[6] = IC50-SLC (NS2B–NS3 interaction), split luciferase complementation, n = 3

Chain of NS2B−NS3 interactions (NLuc-NS2B49−66 / GST-CLuc-NS3) (P29990 1476-1660): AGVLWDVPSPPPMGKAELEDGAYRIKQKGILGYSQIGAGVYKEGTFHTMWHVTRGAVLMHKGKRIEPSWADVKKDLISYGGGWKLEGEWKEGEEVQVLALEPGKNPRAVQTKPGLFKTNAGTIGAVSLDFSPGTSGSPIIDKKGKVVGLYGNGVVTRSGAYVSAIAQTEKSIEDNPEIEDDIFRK

Oc1cccc(-c2c3nc(c(-c4cccc(O)c4)c4ccc([nH]4)c(-c4cccc(O)c4)c4nc(c(-c5cccc(O)c5)c5ccc2[nH]5)CC4)C=C3)c1 [temoporfin]
toxicity to 3D organoids (morphology) [1]: significant toxicity
cellular cytotoxicity [2]: moderate cellular cytotoxicity

O=C1OC2(c3cc(Cl)c(O)cc3Oc3cc(O)c(Cl)cc32)c2ccccc21 [JMX0897, 2′,7′-Dichloro-3′,6′-dihydroxy-3H-spiro[isobenzofuran-1,9′-xanthen]-3-one]
IC50 ([3]; IC50-SLC): ~50 µM
IC50 [3, 6]: 48 µM
IC50 [4]: 23 µM
EC50 [5]: > 15 µM

O=C1OC2(c3ccc(O)cc3Oc3cc(O)ccc32)c2ccc(NC(=S)NCCS)cc21 [JMX0912, 1-(3′,6′-Dihydroxy-3-oxo-3H-spiro[isobenzofuran-1,9′-xanthen]-5-yl)-3-(2-mercaptoethyl)thiourea]
IC50 ([3]; IC50-SLC): > 50 µM
IC50 [3, 6]: > 100 µM
IC50 [4]: 88 µM
EC50 [5]: > 15 µM

O=C1OC2(c3ccccc31)c1ccc(O)c(Br)c1Oc1c2ccc(O)c1Br [JMX0893, 4′,5′-dibromo-3′,6′-dihydroxy-3H-spiro[isobenzofuran-1,9′-xanthen]-3-one]
IC50 [3, 6]: 16 µM
IC50 [4]: > 60 µM
EC50 [5]: > 15 µM

O=C1OC2(c3cc(I)c(O)c(I)c3Oc3c2cc(I)c(O)c3I)c2c(Cl)c(Cl)c(Cl)c(Cl)c21 [JMX0902, Sodium 4,5,6,7-tetrachloro-2′,4′,5′,7′-tetraiodo-3-oxo-3H-spiro[isobenzofuran-1,9′-xanthene]-3′,6′-bis(olate)]
IC50 [3, 6]: 0.43 µM
IC50 [4]: 2.6 µM
EC50 [5]: 0.3 µM

O=C1OC2(c3ccccc31)c1ccc(O)c(I)c1Oc1c2ccc(O)c1I [JMX0903, Sodium 4′,5′-diiodo-3-oxo-3H-spiro[isobenzofuran-1,9′-xanthene]-3′,6′-bis(olate)]
IC50 [3, 6]: 15 µM
IC50 [4]: 60 µM
EC50 [5]: > 15 µM

O=C1OC2(c3ccccc31)c1cc(Br)c(O)c(Br)c1Oc1c2cc(Br)c(O)c1Br [JMX0911, 2′,4′,5′,7′-tetrabromo-3′,6′-dihydroxy-3H-spiro[isobenzofuran-1,9′-xanthen]-3-one]
IC50 [3, 6]: 3.4 µM
EC50 [5]: > 15 µM

O=C1OC2(c3ccccc31)c1ccc(O)c(Cl)c1Oc1c2ccc(O)c1Cl [JMX0892, 4′,5′-Dichloro-3′,6′-dihydroxy-3H-spiro[isobenzofuran-1,9′-xanthen]-3-one]
IC50 ([3]; IC50-SLC): ~50 µM
IC50 [3, 6]: 50 µM
IC50 [4]: > 60 µM
EC50 [5]: > 15 µM

O=C(O)c1ccc2c(c1)C(=O)OC21c2ccc(O)cc2Oc2cc(O)ccc21 [JMX0920, 3′,6′-Dihydroxy-3-oxo-3H-spiro[isobenzofuran-1,9′-xanthene]-5-carboxylic acid]
IC50 ([3]; IC50-SLC): > 50 µM
IC50 [3, 6]: 53 µM
IC50 [4]: > 100 µM
EC50 [5]: > 15 µM

O=C1OC2(c3ccc(O)cc3Oc3cc(O)ccc32)c2ccccc21 [JMX0915, 3′,6′-Dihydroxy-3H-spiro[isobenzofuran-1,9′-xanthen]-3-one]
IC50 ([3]; IC50-SLC): > 50 µM
IC50 [3, 6]: > 100 µM
IC50 [4]: > 100 µM
EC50 [5]: > 15 µM

Reference: article PMC9279632 (Acta Pharmaceutica Sinica. B, 2021)
